Experimental data published in PubChem BioAssay (NCI).
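In this assay, cells in 96-well plates receive the compound at five concentrations for 48 hours. Endpoints are linearly interpolated between the surrounding concentrations. GI50: concentration for 50% inhibition of growth. TGI is the concentration that stops growth completely.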

What was measured:
Assay in all cases: DTP human tumour cell line panel, 48 h
HOP-92 NSCLC = system: HOP-92 NSCLC
UACC-62 melanoma = system: UACC-62 melanoma
SK-MEL-5 melanoma = system: SK-MEL-5 melanoma
SNB-19 CNS = system: SNB-19 CNS
ACHN renal = system: ACHN renal
M14 melanoma = system: M14 melanoma
SW-620 colon = system: SW-620 colon
RXF 393 renal = system: RXF 393 renal
SK-MEL-28 melanoma = system: SK-MEL-28 melanoma
A549 NSCLC = system: A549 NSCLC
OVCAR-8 ovarian = system: OVCAR-8 ovarian
CCRF-CEM leukemia = system: CCRF-CEM leukemia
SNB-75 CNS = system: SNB-75 CNS
UACC-257 melanoma = system: UACC-257 melanoma
U251 CNS = system: U251 CNS
DU-145 prostate = system: DU-145 prostate
HL-60(TB) leukemia = system: HL-60(TB) leukemia
MDA-MB-435 = system: MDA-MB-435
NCI-H23 lung = system: NCI-H23 lung
HCC-2998 colon = system: HCC-2998 colon
OVCAR-4 ovarian = system: OVCAR-4 ovarian
BT-549 breast = system: BT-549 breast
786-0 renal = system: 786-0 renal
HCT-116 colon = system: HCT-116 colon
OVCAR-5 ovarian = system: OVCAR-5 ovarian
SF-539 CNS = system: SF-539 CNS
IGROV1 ovarian = system: IGROV1 ovarian
OVCAR-3 ovarian = system: OVCAR-3 ovarian
COLO 205 colon = system: COLO 205 colon
TK-10 renal = system: TK-10 renal
SN12C renal = system: SN12C renal
HOP-62 NSCLC = system: HOP-62 NSCLC
NCI-H226 lung = system: NCI-H226 lung
SF-295 CNS = system: SF-295 CNS
SK-OV-3 ovarian = system: SK-OV-3 ovarian
SK-MEL-2 melanoma = system: SK-MEL-2 melanoma
LOX IMVI melanoma = system: LOX IMVI melanoma
MDA-MB-231 breast = system: MDA-MB-231 breast
MALME-3M melanoma = system: MALME-3M melanoma
HS 578T breast = system: HS 578T breast
SF-268 CNS = system: SF-268 CNS
SR leukemia = system: SR leukemia
K-562 leukemia = system: K-562 leukemia
MOLT-4 leukemia = system: MOLT-4 leukemia
HT29 colon = system: HT29 colon
NCI/ADR-RES ovarian = system: NCI/ADR-RES ovarian

What does the source list for `O=C(Nc1ccc(OCc2nnc(-c3ccc(Cl)cc3)o2)c(F)c1)c1ccc(Cl)c(C(F)(F)F)c1`?
GI50 (HOP-92 NSCLC): > 50 µM; TGI (HOP-92 NSCLC): > 50 µM; GI50 (UACC-62 melanoma): > 50 µM; TGI (UACC-62 melanoma): > 50 µM; GI50 (SK-MEL-5 melanoma): > 50 µM; TGI (SK-MEL-5 melanoma): > 50 µM; GI50 (SNB-19 CNS): > 50 µM; TGI (SNB-19 CNS): > 50 µM; GI50 (ACHN renal): > 50 µM; TGI (ACHN renal): > 50 µM; GI50 (M14 melanoma): > 50 µM; TGI (M14 melanoma): > 50 µM; GI50 (SW-620 colon): > 50 µM; TGI (SW-620 colon): > 50 µM; GI50 (RXF 393 renal): > 50 µM; TGI (RXF 393 renal): > 50 µM; GI50 (SK-MEL-28 melanoma): > 50 µM; TGI (SK-MEL-28 melanoma): > 50 µM; GI50 (A549 NSCLC): > 50 µM; TGI (A549 NSCLC): > 50 µM; GI50 (OVCAR-8 ovarian): > 50 µM; TGI (OVCAR-8 ovarian): > 50 µM; GI50 (CCRF-CEM leukemia): > 50 µM; TGI (CCRF-CEM leukemia): > 50 µM; GI50 (SNB-75 CNS): > 50 µM; TGI (SNB-75 CNS): > 50 µM; GI50 (UACC-257 melanoma): > 50 µM; TGI (UACC-257 melanoma): > 50 µM; GI50 (U251 CNS): > 50 µM; TGI (U251 CNS): > 50 µM; GI50 (DU-145 prostate): > 50 µM; TGI (DU-145 prostate): > 50 µM; GI50 (HL-60(TB) leukemia): > 50 µM; TGI (HL-60(TB) leukemia): > 50 µM; GI50 (MDA-MB-435): > 50 µM; TGI (MDA-MB-435): > 50 µM; GI50 (NCI-H23 lung): > 50 µM; TGI (NCI-H23 lung): > 50 µM; GI50 (HCC-2998 colon): > 50 µM; TGI (HCC-2998 colon): > 50 µM; GI50 (OVCAR-4 ovarian): > 50 µM; TGI (OVCAR-4 ovarian): > 50 µM; GI50 (BT-549 breast): > 50 µM; TGI (BT-549 breast): > 50 µM; GI50 (786-0 renal): > 50 µM; TGI (786-0 renal): > 50 µM; GI50 (HCT-116 colon): > 50 µM; TGI (HCT-116 colon): > 50 µM; GI50 (OVCAR-5 ovarian): > 50 µM; TGI (OVCAR-5 ovarian): > 50 µM; GI50 (SF-539 CNS): > 50 µM; TGI (SF-539 CNS): > 50 µM; GI50 (IGROV1 ovarian): > 50 µM; TGI (IGROV1 ovarian): > 50 µM; GI50 (OVCAR-3 ovarian): > 50 µM; TGI (OVCAR-3 ovarian): > 50 µM; GI50 (COLO 205 colon): > 50 µM; TGI (COLO 205 colon): > 50 µM; GI50 (TK-10 renal): > 50 µM; TGI (TK-10 renal): > 50 µM; GI50 (SN12C renal): > 50 µM; TGI (SN12C renal): > 50 µM; GI50 (HOP-62 NSCLC): > 50 µM; TGI (HOP-62 NSCLC): > 50 µM; GI50 (NCI-H226 lung): > 50 µM; TGI (NCI-H226 lung): > 50 µM; GI50 (SF-295 CNS): > 50 µM; TGI (SF-295 CNS): > 50 µM; GI50 (SK-OV-3 ovarian): > 50 µM; TGI (SK-OV-3 ovarian): > 50 µM; GI50 (SK-MEL-2 melanoma): > 50 µM; TGI (SK-MEL-2 melanoma): > 50 µM; GI50 (LOX IMVI melanoma): > 50 µM; TGI (LOX IMVI melanoma): > 50 µM; GI50 (MDA-MB-231 breast): > 50 µM; TGI (MDA-MB-231 breast): > 50 µM; GI50 (MALME-3M melanoma): > 50 µM; TGI (MALME-3M melanoma): > 50 µM; GI50 (HS 578T breast): > 50 µM; TGI (HS 578T breast): > 50 µM; GI50 (SF-268 CNS): > 50 µM; TGI (SF-268 CNS): > 50 µM; GI50 (SR leukemia): > 50 µM; TGI (SR leukemia): > 50 µM; GI50 (K-562 leukemia): > 50 µM; TGI (K-562 leukemia): > 50 µM; GI50 (MOLT-4 leukemia): > 50 µM; TGI (MOLT-4 leukemia): > 50 µM; GI50 (HT29 colon): > 50 µM; TGI (HT29 colon): > 50 µM; GI50 (NCI/ADR-RES ovarian): > 50 µM; TGI (NCI/ADR-RES ovarian): > 50 µM
